# Columns and labels:
# [1] = biological target: T1, Integrin alpha-4 (Homo sapiens, UniProt P13612); assay: Displacement of [125I]-(S)-2-((2S,4R)-4-(azetidin-1-yl)-1-(3-iodophenylsulfonyl)pyrrolidine-2-carboxamido)-3-(4-(3,5-dichloroisonicotinamido)phenyl)propanoic acid from VLA4 in human Jurkat cells washed with Hepes buffer by competitive binding assay; type: cell-based
# T1 sequence (P13612 whole entry): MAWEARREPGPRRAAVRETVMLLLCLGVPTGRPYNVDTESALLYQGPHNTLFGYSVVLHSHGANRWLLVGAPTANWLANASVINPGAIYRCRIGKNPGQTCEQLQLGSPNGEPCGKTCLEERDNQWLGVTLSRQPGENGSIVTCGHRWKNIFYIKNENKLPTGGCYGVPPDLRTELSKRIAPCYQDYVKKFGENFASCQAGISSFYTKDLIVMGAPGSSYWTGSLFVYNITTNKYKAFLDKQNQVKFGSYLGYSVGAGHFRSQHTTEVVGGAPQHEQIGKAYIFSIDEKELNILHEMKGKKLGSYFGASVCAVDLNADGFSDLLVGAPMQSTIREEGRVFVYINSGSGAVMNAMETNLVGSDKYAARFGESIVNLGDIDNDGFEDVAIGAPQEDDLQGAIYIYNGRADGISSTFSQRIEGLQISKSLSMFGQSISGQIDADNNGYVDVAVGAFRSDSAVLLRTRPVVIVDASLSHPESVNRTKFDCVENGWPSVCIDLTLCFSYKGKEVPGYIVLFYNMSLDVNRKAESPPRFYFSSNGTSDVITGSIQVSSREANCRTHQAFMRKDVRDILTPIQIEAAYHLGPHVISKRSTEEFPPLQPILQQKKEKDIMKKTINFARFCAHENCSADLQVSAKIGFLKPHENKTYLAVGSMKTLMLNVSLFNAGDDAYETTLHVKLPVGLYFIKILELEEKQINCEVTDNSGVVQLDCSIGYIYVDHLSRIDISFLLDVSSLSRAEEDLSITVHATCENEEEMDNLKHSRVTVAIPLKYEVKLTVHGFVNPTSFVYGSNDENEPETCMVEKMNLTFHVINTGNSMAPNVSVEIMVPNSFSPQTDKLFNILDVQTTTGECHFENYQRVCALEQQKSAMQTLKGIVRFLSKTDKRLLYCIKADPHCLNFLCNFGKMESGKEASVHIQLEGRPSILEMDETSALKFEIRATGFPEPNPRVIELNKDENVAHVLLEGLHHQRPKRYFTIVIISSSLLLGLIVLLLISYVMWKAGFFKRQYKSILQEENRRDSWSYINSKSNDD
# [2] = biological target: Integrin alpha-4 (Homo sapiens) (UniProt P13612); assay: Binding affinity to human VLA4 at 37 degC after 3 hrs; parameters: concentration or dose not given beside the values
# [3] = biological target: T1, Integrin alpha-4; assay: Displacement of [125I]-(S)-2-((2S,4R)-4-(azetidin-1-yl)-1-(3-iodophenylsulfonyl)pyrrolidine-2-carboxamido)-3-(4-(3,5-dichloroisonicotinamido)phenyl)propanoic acid from VLA4 in human whole blood by competitive binding assay; type: tissue-based
# [4] = biological target: Cytochrome P450 3A4 (Homo sapiens, UniProt P08684); assay: Inhibition of human CYP3A4; type: ADME
# Cytochrome P450 3A4, sequence (P08684 whole entry): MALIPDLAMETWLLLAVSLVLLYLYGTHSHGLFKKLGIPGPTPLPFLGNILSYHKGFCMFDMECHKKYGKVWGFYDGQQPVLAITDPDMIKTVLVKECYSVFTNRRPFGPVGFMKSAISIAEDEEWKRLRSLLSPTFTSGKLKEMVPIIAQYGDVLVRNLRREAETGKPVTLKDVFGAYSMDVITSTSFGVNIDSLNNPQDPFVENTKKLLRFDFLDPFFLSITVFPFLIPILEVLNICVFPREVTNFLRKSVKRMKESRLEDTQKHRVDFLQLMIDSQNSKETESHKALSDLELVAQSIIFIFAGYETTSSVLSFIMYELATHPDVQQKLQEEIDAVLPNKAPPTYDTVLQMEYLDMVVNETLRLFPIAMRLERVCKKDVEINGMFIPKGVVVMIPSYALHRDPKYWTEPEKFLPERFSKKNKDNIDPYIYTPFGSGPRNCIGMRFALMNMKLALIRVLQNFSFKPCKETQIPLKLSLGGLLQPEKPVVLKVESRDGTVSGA
# [5] = test system: Rattus norvegicus; assay: Ex vivo receptor occupancy at VLA4 in rat at 1 mg/kg, po after 8 hrs by [125I]- -(S)-2-((2S,4R)-4-(azetidin-1-yl)-1-(3-iodophenylsulfonyl)pyrrolidine-2-carboxamido)-3-(4-(3,5-dichloroisonicotinamido)phenyl)propanoic acid competitive binding assay; type: functional
# [6] = test system: Rattus norvegicus; assay: Ex vivo receptor occupancy at VLA4 in rat at 0.5 mg/kg, iv after 8 hrs by [125I]- -(S)-2-((2S,4R)-4-(azetidin-1-yl)-1-(3-iodophenylsulfonyl)pyrrolidine-2-carboxamido)-3-(4-(3,5-dichloroisonicotinamido)phenyl)propanoic acid competitive binding assay; type: functional
# [7] = Plasma Clearance in rhesus monkey at 0.75 mg/kg, iv; type: ADME, organism-based, Macaca mulatta; parameters: dose 0.75 mg/kg, route intravenous
# [8] = Half life in dog at 0.75 mg/kg, iv; type: ADME, organism-based, Canis lupus familiaris; parameters: dose 0.75 mg/kg, route intravenous; conditions: in vivo
# [9] = Plasma Clearance in rat at 0.5 mg/kg, iv; type: ADME, organism-based; parameters: dose 0.5 mg/kg, route intravenous
# [10] = test system: Canis familiaris; assay: Ex vivo receptor occupancy at VLA4 in dog at 0.75 mg/kg, iv after 8 hrs by [125I]- -(S)-2-((2S,4R)-4-(azetidin-1-yl)-1-(3-iodophenylsulfonyl)pyrrolidine-2-carboxamido)-3-(4-(3,5-dichloroisonicotinamido)phenyl)propanoic acid competitive binding assay; type: functional, Canis lupus familiaris
# [11] = Plasma Clearance in dog at 0.75 mg/kg, iv; type: ADME, organism-based, Canis lupus familiaris; parameters: dose 0.75 mg/kg, route intravenous
# [12] = Half life in rat at 0.5 mg/kg, iv; type: ADME, organism-based; parameters: dose 0.5 mg/kg, route intravenous; conditions: in vivo
# [13] = test system: Rhesus monkey; assay: Tmin in rhesus monkey at 0.75 mg/kg, iv; type: ADME, organism-based, Macaca mulatta; parameters: dose 0.75 mg/kg, route intravenous; conditions: in vivo
# [14] = Half life in rhesus monkey at 0.75 mg/kg, iv; type: ADME, organism-based, Macaca mulatta; parameters: dose 0.75 mg/kg, route intravenous; conditions: in vivo
# [15] = test system: Rattus norvegicus; assay: Tmin in rat at 0.5 mg/kg, iv; type: ADME, organism-based; parameters: dose 0.5 mg/kg, route intravenous; conditions: in vivo
# [16] = test system: Rhesus monkey; assay: Ex vivo receptor occupancy at VLA4 in rhesus monkey at 0.75 mg/kg, iv after 8 hrs by [125I]- -(S)-2-((2S,4R)-4-(azetidin-1-yl)-1-(3-iodophenylsulfonyl)pyrrolidine-2-carboxamido)-3-(4-(3,5-dichloroisonicotinamido)phenyl)propanoic acid competitive binding assay; type: functional, Macaca mulatta
# [17] = test system: Canis familiaris; assay: Tmin in dog at 0.75 mg/kg, iv; type: ADME, organism-based, Canis lupus familiaris; parameters: dose 0.75 mg/kg, route intravenous; conditions: in vivo
# [18] = biological target: Integrin alpha-4 (Homo sapiens) (UniProt P13612); assay: Binding affinity to human VLA4 at 37 degC after 1 hr
# [19] = test system: Canis familiaris; assay: Ex vivo receptor occupancy at VLA4 in dog at 5 mg/kg, po after 12 hrs by [125I]- -(S)-2-((2S,4R)-4-(azetidin-1-yl)-1-(3-iodophenylsulfonyl)pyrrolidine-2-carboxamido)-3-(4-(3,5-dichloroisonicotinamido)phenyl)propanoic acid competitive binding assay; type: functional, Canis lupus familiaris
# [20] = organism: Canis lupus familiaris; assay: Inhibition of dog VLA4
# [21] = Plasma Clearance in dog at 5 mg/kg, po; type: ADME, organism-based, Canis lupus familiaris; parameters: dose 5 mg/kg, route oral
# [22] = test system: Liver microsomes; assay: Metabolic stability in rat liver microsomes after 1 hr; type: ADME, Microsome
# [23] = organism: Rattus norvegicus; assay: Inhibition of rat VLA4
# [24] = Half life in rhesus monkey at 5 mg/kg, po; type: ADME, organism-based, Macaca mulatta; parameters: dose 5 mg/kg, route oral; conditions: in vivo
# [25] = biological target: Integrin alpha-4 (Homo sapiens) (UniProt P13612); assay: Inhibition of human VLA4
# [26] = test system: Canis familiaris; assay: Tmin in dog at 5 mg/kg, po; type: ADME, organism-based, Canis lupus familiaris; parameters: dose 5 mg/kg, route oral; conditions: in vivo
# [27] = Half life in dog at 5 mg/kg, po; type: ADME, organism-based, Canis lupus familiaris; parameters: dose 5 mg/kg, route oral; conditions: in vivo
# [28] = organism: Macaca mulatta; assay: Inhibition of rhesus monkey VLA4
# [29] = test system: Liver microsomes; assay: Metabolic stability in human liver microsomes after 1 hr; type: ADME, Microsome
# [30] = Half life in rat at 5 mg/kg, po; type: ADME, organism-based; parameters: dose 5 mg/kg, route oral; conditions: in vivo
# [31] = test system: Rhesus monkey; assay: Ex vivo receptor occupancy at VLA4 in rhesus monkey at 5 mg/kg, po after 8 hrs by [125I]- -(S)-2-((2S,4R)-4-(azetidin-1-yl)-1-(3-iodophenylsulfonyl)pyrrolidine-2-carboxamido)-3-(4-(3,5-dichloroisonicotinamido)phenyl)propanoic acid competitive binding assay; type: functional, Macaca mulatta
# [32] = Plasma Clearance in rhesus monkey at 5 mg/kg, po; type: ADME, organism-based, Macaca mulatta; parameters: dose 5 mg/kg, route oral
# [33] = test system: Rattus norvegicus; assay: Ex vivo receptor occupancy at VLA4 in rat at 5 mg/kg, po after 12 hrs by [125I]- -(S)-2-((2S,4R)-4-(azetidin-1-yl)-1-(3-iodophenylsulfonyl)pyrrolidine-2-carboxamido)-3-(4-(3,5-dichloroisonicotinamido)phenyl)propanoic acid competitive binding assay; type: functional
# [34] = Plasma Clearance in rat at 5 mg/kg, po; type: ADME, organism-based; parameters: dose 5 mg/kg, route oral
# [35] = test system: Rattus norvegicus; assay: Tmin in rat at 5 mg/kg, po; type: ADME, organism-based; parameters: dose 5 mg/kg, route oral; conditions: in vivo
# [36] = test system: Rhesus monkey; assay: Tmin in rhesus monkey at 5 mg/kg, po; type: ADME, organism-based, Macaca mulatta; parameters: dose 5 mg/kg, route oral; conditions: in vivo
smiles,measurement,setting,value
O=C(Nc1ccc(C[C@H](NC(=O)[C@@H]2C[C@@H](NC3CCC3)CN2S(=O)(=O)c2cc(Cl)cc(Cl)c2)C(=O)O)cc1)c1c(Cl)cncc1Cl,IC50,[1],0.1 nM
same,Activity,[2],82%
same,IC50,[3],0.1 nM
CCOC(=O)[C@H](Cc1ccc(NC(=O)c2c(Cl)cncc2Cl)cc1)NC(=O)[C@@H]1C[C@@H](NC2CCC2)CN1S(=O)(=O)c1cc(Cl)cc(Cl)c1,IC50,[4],< 400 nM
same,Activity,[5],51%
O=C(Nc1ccc(C[C@H](NC(=O)[C@@H]2C[C@@H](N3CCC3)CN2S(=O)(=O)c2cc(Cl)cc(Cl)c2)C(=O)O)cc1)c1c(Cl)cncc1Cl,Activity,[6],64%
same,IC50,[1],0.08 nM
same,Activity,[2],77%
same,clearance,[7],1.98 L/h/kg
same,half-life,[8],0.5 h
same,clearance,[9],3.9 L/h/kg
same,Activity,[10],72%
same,clearance,[11],1.74 L/h/kg
same,half-life,[12],1 h
same,Tmin,[13],6 h
same,half-life,[14],1.1 h
same,Tmin,[15],2 h
same,Activity,[16],87%
same,Tmin,[17],1 h
same,Activity,[5],46%
same,IC50,[3],0.2 nM
O=C(Nc1ccc(C[C@H](NC(=O)[C@@H]2C[C@H](N3CCC3)CN2S(=O)(=O)c2cc(Cl)cc(Cl)c2)C(=O)O)cc1)c1c(Cl)cncc1Cl,IC50,[1],0.2 nM
same,Activity,[18],15%
O=C(Nc1ccc(C[C@H](NC(=O)[C@@H]2CCCN2S(=O)(=O)c2cc(Cl)cc(Cl)c2)C(=O)O)cc1)c1c(Cl)cncc1Cl,IC50,[1],0.07 nM
same,Activity,[18],62%
same,IC50,[3],1.5 nM
O=C(Nc1ccc(C[C@H](NC(=O)[C@@H]2C[C@@H](N3CCCCC3)CN2S(=O)(=O)c2cc(Cl)cc(Cl)c2)C(=O)O)cc1)c1c(Cl)cncc1Cl,IC50,[1],0.09 nM
same,Activity,[2],89%
same,IC50,[3],0.3 nM
O=C(Nc1ccc(C[C@H](NC(=O)[C@@H]2C[C@@H](N3CCCC3)CN2S(=O)(=O)c2cc(Cl)cc(Cl)c2)C(=O)O)cc1)c1c(Cl)cncc1Cl,IC50,[1],0.1 nM
same,Activity,[2],82%
same,IC50,[3],0.2 nM
N#Cc1cccc(S(=O)(=O)N2C[C@H](NC3CCC3)C[C@H]2C(=O)N[C@@H](Cc2ccc(NC(=O)c3c(Cl)cncc3Cl)cc2)C(=O)O)c1,Activity,[19],83%
same,IC90,[20],0.19 nM
same,Activity,[2],64%
same,CL/F,[21],1.74 L/h/kg
same,Stability,[22],39 pmol/mg
same,IC90,[23],0.4 nM
same,half-life,[24],1.1 h
same,IC90,[25],0.13 nM
same,Tmin,[26],6 h
same,half-life,[27],0.5 h
same,IC90,[28],0.21 nM
same,Stability,[29],56 pmol/mg
same,half-life,[30],1 h
same,Activity,[31],88%
same,CL/F,[32],1.98 L/h/kg
same,Activity,[33],67%
same,CL/F,[34],3.9 L/h/kg
same,Tmin,[35],0 h
same,Tmin,[36],0 h
CCOC(=O)[C@H](Cc1ccc(NC(=O)c2c(Cl)cncc2Cl)cc1)NC(=O)[C@@H]1C[C@@H](N2CCC2)CN1S(=O)(=O)c1cc(Cl)cc(Cl)c1,Activity,[5],62%
C[C@@]1(C(=O)N[C@@H](Cc2ccc(NC(=O)c3c(Cl)cncc3Cl)cc2)C(=O)O)CCCN1S(=O)(=O)c1cc(Cl)cc(Cl)c1,IC50,[1],0.11 nM
same,IC50,[3],49 nM
CCOC(=O)[C@H](Cc1ccc(NC(=O)c2c(Cl)cncc2Cl)cc1)NC(=O)[C@@H]1C[C@@H](NC2CCC2)CN1S(=O)(=O)c1cccc(C#N)c1,Activity,[19],97%
same,Tmin,[26],12 h
same,IC50,[4],1700 nM
same,Activity,[31],95%
same,Activity,[33],77%
same,Tmin,[35],0 h
same,Tmin,[36],0 h
N[C@@H]1C[C@@H](C(=O)N[C@@H](Cc2ccc(NC(=O)c3c(Cl)cncc3Cl)cc2)C(=O)O)N(S(=O)(=O)c2cc(Cl)cc(Cl)c2)C1,IC50,[1],0.09 nM
same,Activity,[18],47%
same,IC50,[3],0.4 nM

# — ChEMBL document CHEMBL1136936, “Discovery of N-{N-[(3-cyanophenyl)sulfonyl]-4(R)-cyclobutylamino-(L)-prolyl}-4-[(3',5'-dichloroisonicotinoyl) amino]-(L)-phenylalanine (MK-0668), an extremely potent and orally active antagonist of very late antigen-4” (J Med Chem, 2009)
